From patent US8569295B2, “Bicyclic urea compounds” (Merck Patent GmbH, priority 2009, dated 2013)

target: T1, RON kinase (Homo sapiens, UniProt Q04912); assay: RON kinase biochemical mobility shift assay (Caliper Desktop Profiler); conditions: RON kinase inhibition
T1 construct: purchased Caliper Life Sciences
Protocol: The Aurora assays described here are performed on two Caliper Life Sciences systems: the LC3000 and the Desktop Profiler. The RON kinase assays are performed on the Desktop Profiler only. These provide data on enzyme activity via measurement of the relative amounts of phosphorylated or unphosphorylated fluorescently labelled substrate peptide at the end of an enzymatic reaction. These different states of peptide are resolved by applying a potential difference across the sample. The presence of the charged phosphate group on the product (as opposed to the substrate) causes a different peptide mobility between the two peptides. This is visualized by excitation of the fluorescent label on the substrate and product peptides and represented as peaks within the analysis software.
The Desktop Profiler utilizes the same priniciple as the LC3000 for calculating percentage conversion of a substrate to product. Caliper Life Sciences provides proprietary flash frozen pre-made 384 well plates containing selected kinases. Each column in the 384 well plate contains a particular selected kinase. A second plate, the ‘substrate plate’ contains a mix of fluorescently labeled peptide substrate and ATP. These are arranged in columns so that transfer for substrate plate to enzyme plate provides the correct enzyme with the correct substrate/ATP concentration. Compounds are added to a thawed enzyme plate in the desired format, in single concentrations. Reactions are initiated by transfer of the substrate/ATP mix from the substrate plate. The enzyme plate is incubated for 90 minutes at 25 C. The reaction is stopped by addition of 70 ul of Stop Buffer (100 mM HEPES pH 7.5, 0.015% Brij-35, 10 mM EDTA (Sigma, E7889)).
Reading of the plate in the Profiler is identical to the LC3000, and the ratio between substrate and product peaks provides the activity of the enzyme in that well. This is best represented by a plate heat map which colors each well by percent inhibition as compared to positive and negative controls (no inhibitors and no ATP respectively).

T1 sequence (Q04912 25-1400): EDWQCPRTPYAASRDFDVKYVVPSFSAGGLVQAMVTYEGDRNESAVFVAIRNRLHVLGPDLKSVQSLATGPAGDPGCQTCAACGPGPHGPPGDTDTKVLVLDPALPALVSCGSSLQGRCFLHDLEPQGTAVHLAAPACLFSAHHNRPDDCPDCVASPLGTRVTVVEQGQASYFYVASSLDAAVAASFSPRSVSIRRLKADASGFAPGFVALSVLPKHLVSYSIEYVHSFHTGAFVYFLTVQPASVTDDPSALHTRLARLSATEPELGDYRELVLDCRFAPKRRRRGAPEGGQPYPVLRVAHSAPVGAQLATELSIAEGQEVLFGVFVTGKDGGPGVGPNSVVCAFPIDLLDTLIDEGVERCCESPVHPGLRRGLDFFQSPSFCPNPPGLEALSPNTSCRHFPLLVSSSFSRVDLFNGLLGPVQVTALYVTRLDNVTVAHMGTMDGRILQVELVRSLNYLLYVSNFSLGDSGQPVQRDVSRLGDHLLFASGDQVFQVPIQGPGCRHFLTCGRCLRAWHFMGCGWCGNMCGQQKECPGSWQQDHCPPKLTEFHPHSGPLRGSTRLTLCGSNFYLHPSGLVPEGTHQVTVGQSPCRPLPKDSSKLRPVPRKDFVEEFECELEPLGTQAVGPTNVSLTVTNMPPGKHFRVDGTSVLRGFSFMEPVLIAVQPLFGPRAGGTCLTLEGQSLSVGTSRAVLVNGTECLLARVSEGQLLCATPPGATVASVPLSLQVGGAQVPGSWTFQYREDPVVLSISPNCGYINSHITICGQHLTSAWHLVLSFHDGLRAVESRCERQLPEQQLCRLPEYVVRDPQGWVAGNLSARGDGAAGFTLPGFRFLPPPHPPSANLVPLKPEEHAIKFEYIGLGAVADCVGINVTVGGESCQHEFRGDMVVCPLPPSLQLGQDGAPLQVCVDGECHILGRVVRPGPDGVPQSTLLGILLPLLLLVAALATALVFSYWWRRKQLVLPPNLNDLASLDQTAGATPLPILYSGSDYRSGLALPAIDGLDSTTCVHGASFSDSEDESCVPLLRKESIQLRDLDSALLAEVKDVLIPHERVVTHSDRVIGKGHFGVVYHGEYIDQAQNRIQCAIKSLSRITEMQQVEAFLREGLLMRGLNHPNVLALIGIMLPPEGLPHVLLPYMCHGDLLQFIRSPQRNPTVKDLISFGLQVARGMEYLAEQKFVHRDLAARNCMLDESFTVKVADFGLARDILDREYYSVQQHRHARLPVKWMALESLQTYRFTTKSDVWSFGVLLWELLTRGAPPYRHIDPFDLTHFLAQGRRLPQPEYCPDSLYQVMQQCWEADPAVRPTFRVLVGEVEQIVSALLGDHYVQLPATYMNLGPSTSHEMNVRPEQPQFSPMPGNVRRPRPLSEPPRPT

IC50	Compound
10 to 100 nM	O=C(Nc1ccc(Oc2ccnc3c2C2OCCCN2C(=O)N3)c(F)c1)c1cccn(-c2ccc(F)cc2)c1=O (centres unmarked) [Example 76, N-{3-fluoro-4-[(6-oxo-3,4,7,11b-tetrahydro-2H,6H-pyrido[2′,3′:4,5]pyrimido[6,1-b][1,3]oxazin-11-yl)oxy]phenyl}-1-(4-fluorophenyl)-2-oxo-1,2-dihydropyridine-3-carboxamide]
< 10 nM	CCN1Cc2c(Oc3ccc(NC(=O)c4cccn(-c5ccc(F)cc5)c4=O)cc3F)ccnc2NC1=O [Example 84, N-{4-[(3-ethyl-2-oxo-1,2,3,4-tetrahydropyrido[2,3-d]pyrimidin-5-yl)oxy]-3-fluorophenyl}-1-(4-fluorophenyl)-2-oxo-1,2-dihydropyridine-3-carboxamide]
10 to 100 nM	O=C(Nc1ccc(Oc2ccnc3c2CN(CC(F)(F)F)C(=O)N3)c(F)c1)c1cccn(-c2ccc(F)cc2)c1=O [Example 85, N-(3-fluoro-4-{[2-oxo-3-(2,2,2-trifluoroethyl)-1,2,3,4-tetrahydropyrido[2,3-d]pyrimidin-5-yl]oxy}phenyl)-1-(4-fluorophenyl)-2-oxo-1,2-dihydropyridine-3-carboxamide]
10 to 100 nM	O=C1NCc2c(Oc3ccc(NC(=O)c4cccc(C(F)(F)F)c4F)cc3F)ccnc2N1 [Example 94, 2-fluoro-N-{3-fluoro-4-[(2-oxo-1,2,3,4-tetrahydropyrido[2,3-d]pyrimidin-5-yl)oxy]phenyl}-3-(trifluoromethyl)benzamide]
10 to 100 nM	N#Cc1cccc(C(=O)Nc2ccc(Oc3ccnc4c3CNC(=O)N4)c(F)c2)c1 [Example 95, 3-cyano-N-{3-fluoro-4-[(2-oxo-1,2,3,4-tetrahydropyrido[2,3-d]pyrimidin-5-yl)oxy]phenyl}benzamide]
10 to 100 nM	COc1cccc(C(=O)Nc2ccc(Oc3ccnc4c3CNC(=O)N4)c(F)c2)c1 [Example 96, N-{3-fluoro-4-[(2-oxo-1,2,3,4-tetrahydropyrido[2,3-d]pyrimidin-5-yl)oxy]phenyl}-3-methoxybenzamide]
10 to 100 nM	Cc1cccc(C(=O)Nc2ccc(Oc3ccnc4c3CNC(=O)N4)c(F)c2)c1 [Example 97, N-{3-fluoro-4-[(2-oxo-1,2,3,4-tetrahydropyrido[2,3-d]pyrimidin-5-yl)oxy]phenyl}-3-methylbenzamide]
10 to 100 nM	O=C1NCc2c(Oc3ccc(NC(=O)c4cccc(F)c4)cc3F)ccnc2N1 [Example 98, 3-fluoro-N-{3-fluoro-4-[(2-oxo-1,2,3,4-tetrahydropyrido[2,3-d]pyrimidin-5-yl)oxy]phenyl}benzamide]
< 10 nM	O=C1NCc2c(Oc3ccc(NC(=O)c4ccc(Br)cc4)cc3F)ccnc2N1 [Example 99, 4-bromo-N-{3-fluoro-4-[(2-oxo-1,2,3,4-tetrahydropyrido[2,3-d]pyrimidin-5-yl)oxy]phenyl}benzamide]
100 to 1000 nM	Cc1ccc(Nc2ccnc3c2CNC(=O)N3)cc1Br [Example 194, 5-(3-Bromo-4-methyl-phenylamino)-3,4-dihydro-1H-pyrido[2,3-d]pyrimidin-2-one]
100 to 1000 nM	O=C1NCc2c(Nc3ccc(OC(F)(F)F)c(Br)c3)ccnc2N1 [Example 195, 5-(3-Bromo-4-trifluoromethoxy-phenylamino)-3,4-dihydro-1H-pyrido[2,3-d]pyrimidin-2-one]
100 to 1000 nM	CCN1Cc2c(Oc3ccc(NC(=O)Nc4cc([N+](=O)[O-])ccc4F)cc3F)ccnc2NC1=O [Example 258, 1-[4-(3-Ethyl-2-oxo-1,2,3,4-tetrahydro-pyrido[2,3-d]pyrimidin-5-yloxy)-3-fluoro-phenyl]-3-(2-fluoro-5-nitro-phenyl)-urea]
10 to 100 nM	CCN1Cc2c(Oc3ccc(NC(=O)Nc4ccc5c(c4)OCO5)cc3F)ccnc2NC1=O [Example 263, 1-Benzo[1,3]dioxol-5-yl-3-[4-(3-ethyl-2-oxo-1,2,3,4-tetrahydro-pyrido[2,3-d]pyrimidin-5-yloxy)-3-fluoro-phenyl]-urea]
100 to 1000 nM	CCN1Cc2c(Oc3ccc(NC(=O)Nc4ccc(Cl)nc4)cc3F)ccnc2NC1=O [Example 264, 1-(6-Chloro-pyridin-3-yl)-3-[4-(3-ethyl-2-oxo-1,2,3,4-tetrahydro-pyrido[2,3-d]pyrimidin-5-yloxy)-3-fluoro-phenyl]-urea]
100 to 1000 nM	CCN1Cc2c(Oc3ccc(NC(=O)Nc4c(-c5ccccc5)noc4C)cc3F)ccnc2NC1=O [Example 266, 1-[4-(3-Ethyl-2-oxo-1,2,3,4-tetrahydro-pyrido[2,3-d]pyrimidin-5-yloxy)-3-fluoro-phenyl]-3-(5-methyl-3-phenyl-isoxazol-4-yl)-urea]
10 to 100 nM	CCN1Cc2c(Oc3ccc(NC(=O)Nc4cc(C)cs4)cc3F)ccnc2NC1=O [Example 267, 1-[4-(3-Ethyl-2-oxo-1,2,3,4-tetrahydro-pyrido[2,3-d]pyrimidin-5-yloxy)-3-fluoro-phenyl]-3-(4-methyl-thiophen-2-yl)-urea]
10 to 100 nM	CCN1Cc2c(Oc3ccc(NC(=O)Nc4cc(C)oc4C(F)(F)F)cc3F)ccnc2NC1=O [Example 268, 1-[4-(3-Ethyl-2-oxo-1,2,3,4-tetrahydro-pyrido[2,3-d]pyrimidin-5-yloxy)-3-fluoro-phenyl]-3-(5-methyl-2-trifluoromethyl-furan-3-yl)-urea]
10 to 100 nM	O=C(Nc1cccc(F)c1)Nc1ccc(Oc2ccnc3c2CNC(=O)N3)c(F)c1 [Example 269, 1-[3-Fluoro-4-(2-oxo-1,2,3,4-tetrahydro-pyrido[2,3-d]pyrimidin-5-yloxy)-phenyl]-3-(3-fluoro-phenyl)-urea]
10 to 100 nM	O=C(Nc1cccc(C(F)(F)F)c1)Nc1ccc(Oc2ccnc3c2CNC(=O)N3)c(F)c1 [Example 270, 1-[3-Fluoro-4-(2-oxo-1,2,3,4-tetrahydro-pyrido[2,3-d]pyrimidin-5-yloxy)-phenyl]-3-(3-trifluoromethyl-phenyl)-urea]
10 to 100 nM	O=C(Nc1ccc([N+](=O)[O-])cc1)Nc1ccc(Oc2ccnc3c2CNC(=O)N3)c(F)c1 [Example 272, 1-[3-Fluoro-4-(2-oxo-1,2,3,4-tetrahydro-pyrido[2,3-d]pyrimidin-5-yloxy)-phenyl]-3-(4-nitro-phenyl)-urea]
< 10 nM	CC(C)c1ccc(NC(=O)Nc2ccc(Oc3ccnc4c3CNC(=O)N4)c(F)c2)cc1 [Example 273, 1-[3-Fluoro-4-(2-oxo-1,2,3,4-tetrahydro-pyrido[2,3-d]pyrimidin-5-yloxy)-phenyl]-3-(4-isopropyl-phenyl)-urea]
100 to 1000 nM	O=C(Nc1ccc(Oc2ccnc3c2CNC(=O)N3)c(F)c1)Nc1ccc(C(F)(F)F)cc1Cl [Example 274, 1-(2-Chloro-4-trifluoromethyl-phenyl)-3-[3-fluoro-4-(2-oxo-1,2,3,4-tetrahydro-pyrido[2,3-d]pyrimidin-5-yloxy)-phenyl]-urea]
100 to 1000 nM	O=C1NCc2c(Oc3ccc(NC(=O)c4cccn(-c5ccc(F)cc5)c4=O)nc3)ccnc2N1 [Example 283, 1-(4-Fluoro-phenyl)-2-oxo-1,2-dihydro-pyridine-3-carboxylic acid [5-(2-oxo-1,2,3,4-tetrahydro-pyrido[2,3-d]pyrimidin-5-yloxy)-pyridin-2-yl]-amide]
